From US20200003759A1, “METHODS FOR IDENTIFYING METAP-2 MODULATORS” (Zafgen, Inc., priority 2017, published 2020)
Like-named read-outs stand apart in the source and are kept apart here.

What was measured:
[1] = tested on: von Willebrand factor (vWF); test: vWF level in HUVEC lysate; assay type: cell-based, human; settings: discrete time intervals and concentrations (FIG. 3)
Protocol: (§1) Cell lysates were stored at −80° C.
(§2) All values obtained were normalized against protein concentration.

[2] = tested on: p53; test: p53 protein level in HUVEC lysate; assay type: cell-based, human; settings: discrete time intervals and concentrations (FIG. 4)
Protocol: as §1, §2

[3] = tested on: HUVEC; test: Inhibition of HUVEC proliferation as a function of drug exposure time (washout assay)
Protocol: (§3) After incubation with drug or vehicle, EC proliferation was analyzed using a DNA dye (CyQUANT®) added to lysed cells to provide a fluorescent signal relative to the amount of DNA, allowing a measure of cell density.
A washout assay protocol is as follows: Day 1: plate cells: Plate cells at 0.3×10^4 cells/well in collagen coated 96-well plates; Incubate cells at 37° C., 5% CO2 in a humidified atmosphere overnight. Day 2: dilute and add MetAP2 inhibitor compounds: Dilute compounds in cell culture medium to the appropriate concentration. Add medium containing compound onto cells. Incubate cells at 37° C., 5% CO2 in a humidified atmosphere for the appropriate timepoint. Washout: After the indicated time, remove medium from the relevant samples and wash twice with PBS. Replace with fresh medium Incubate at 37° C., 5% CO2 in a humidified atmosphere until final incubation time. […] Measure cell proliferation using CyQuant assay.
The cells were incubated for 72 hrs and cell proliferation was measured to assess inhibition. […] Error bars represent the standard error of the mean for each condition (n=8 replicates per test condition pooled from 3 experiments).

[4] = tested on: plasminogen activator inhibitor-1 (PAI-1); test: PAI-1 protein level in HUVEC lysate; assay type: cell-based, human
Protocol: as §1, §2

[5] = assay type: in vivo
Protocol: Male beagle dogs 10 to 20 months of age (Marshall BioResources, North Rose, NY) were individually housed at the testing facility. […] […]. […] Body weight and food intake were recorded daily. Blood was collected before each dose and 4 hours after each dose for hematology (e.g., platelet count), coagulation parameters (e.g., thrombin time, antithrombin III), and protein panel analysis (e.g., D-dimer) (Nextcea, Woburn, Mass.).

[6] = cited from earlier work
[7] = tested on: p21; test: p21 protein level in HUVEC lysate; assay type: cell-based, human
Protocol: as §1, §2

[8] = tested on: thrombomodulin (TM)
Protocol: For LC-MS/MS sample preparation, cell culture media was removed, cells were washed with 10 mL of Dulbecco's phosphate-buffered saline (DPBS), and 500 μL of T-PER lysis buffer was added. Cell lysates were stored at −80° C. […] For the 4- and 8-hour incubations, cells were maintained by standard culture for the remainder of the 72-hour incubation period. Cell cycle protein levels were assessed using enzyme-linked immunosorbent assays.
HUVEC cells were exposed to compounds at concentrations of 1 nM, 3 nM, 10 nM, and 20 nM. […] The protein assays performed included measurements of total p21, thrombomodulin, total p53, PAI-1, and von Willibrand factor (vWF). All values obtained were normalized against protein concentration.

[9] = tested on: HUVEC; test: Inhibition of HUVEC (EC) proliferation, continuous exposure, CyQUANT DNA dye; settings: Homo sapiens
Protocol: In vitro studies were conducted in cultured HUVECs (Lonza, Amboise, France). Cells were cultured in endothelial growth medium 2 cell culture media (EGM-2, Lonza, Amboise, France), passaged by seeding at 3×10^3 cells/mL on T175 flasks, and allowed to reach approximately 80% confluence before experiments were conducted. Cells were trypsinized and counted using trypan blue exclusion method using an automated Cedex cell counter.
as §3

[10] = 10 nM, 2-hour incubation, washed (FIG. 6B)
[11] = exposures as short as one hour (FIG. 1C)
[12] = dogs, 0.6 mg/kg s.c. Q3D (FIG. 5)
[13] = patients with type 2 diabetes, 26 weeks of treatment
[14] = 72 hours of incubation, all concentrations (1, 3, 10, 20 nM)
[15] = shorter incubations of 4 or 8 hours
[16] = dogs, 2 mg/kg s.c. Q3D for 10 days

With `CO[C@@H]1[C@H](OC(=O)/C=C/c2ccc(OCCN(C)C)cc2)CC[C@]2(CO2)[C@H]1[C@@]1(C)O[C@@H]1CC=C(C)C` [Beloranib, beloranib] the vWF levels [1] was “no effects on vWF levels”, the p53 protein levels [2] was “no effects on p53 protein levels” and the “reduction of cell proliferation measured at 72 hours” value [3, 10] was “approximately 60%”. For the same molecule, the “effects on EC proliferation after short exposure” value [3, 11] was “occurred rapidly”, the “lowest concentration with effects on EC proliferation at short exposure” value [3, 11] was 11 × the EC50 and the PAI-1 protein level ([4]; 10 and 20 nM at the earliest timepoint) was “increased PAI-1 levels”. For the same molecule, the PAI-1 protein level ([4]; all concentrations at 72 hours) was “increased PAI-1 levels”, the tolerability ([5]; dogs, 0.6 mg/kg s.c. Q3D) was “not well tolerated” and the D-dimer concentrations [5, 12] was “increased”. For the same molecule, the “antithrombin III” value [5, 12] was “decreased”, the platelet count [5, 12] was “decreased” and the thrombin time [5, 12] was “decreased”. The “hemostasis in toxicology studies” value ([5]; dogs, 0.6 mg/kg s.c. Q3D, within 2 weeks of drug administration) was “some animals developed evidence of impaired hemostasis”, the adverse events ([6]; patients with obesity, PWS, or type 2 diabetes) was “adverse events (AEs) of venous thromboembolism occurred” and the “reduction in HbA1c” value [6, 13] was 2.0%. For the same molecule, the weight loss [6, 13] was 13%, the p21 protein level [7, 14] was “increased p21” and the p21 protein level ([7]; short 4- or 8-hour incubations, 10 and 20 nM) was “increased p21”.
For `CO[C@@H]1[C@H](OC(=O)N2CC(CCN3CCOCC3)C2)CC[C@]2(CO2)[C@H]1[C@@]1(C)O[C@@H]1CC=C(C)C` [Compound A], the vWF levels [1] was “no effects on vWF levels”, the p53 protein levels [2] was “no effects on p53 protein levels” and the TM protein level [8, 14] was “reduced TM protein levels”. The TM protein level [8, 15] was “no meaningful changes”, the “effect on cell proliferation measured at 72 hours” value [3, 10] was “no effect on cell proliferation” and the “effect on cell proliferation after short-term exposure” value ([3]; 4 hours or less, concentrations up to 50× the EC50) was “no effect on cell proliferation”. For the same molecule, the “continuous exposure time needed for robust inhibition of EC proliferation” value ([3]; FIG. 1B) was no less than 48 h, the “% inhibition 6XIC90 4 h exposure” value ([3]; HUVEC proliferation, 6XIC90, 4 h exposure) was 5.6% and the “% inhibition 6XIC90 24 h exposure” value ([3]; HUVEC proliferation, 6XIC90, 24 h exposure) was 41%. For the same molecule, the “% inhibition 20XIC90 4 h exposure” value ([3]; HUVEC proliferation, 20XIC90, 4 h exposure) was 12.4%, the “% inhibition 20XIC90 24 h exposure” value ([3]; HUVEC proliferation, 20XIC90, 24 h exposure) was 40% and the PAI-1 protein level ([4]; any of the concentrations or time points) was “no effect on PAI-1 protein levels”. The EC50 ([9]; 72 h, read-out: concentration that inhibited EC proliferation by 50% (EC50)) was 0.24 nM, the EC50 ([9]; read-out: HUVEC Proliferation (EC50, nM)) was 0.2 nM and the tolerability ([5]; dog, in vivo, sc, 2 mg/kg) was “well tolerated”. For the same molecule, the body weight [5, 16] was “Weight loss was observed”, the food intake [5, 16] was “unchanged” and the “changes in clinical observations, hematology (platelet count), D-dimer, thrombin time, antithrombin III” value ([5]; dogs, 2 mg/kg s.c. Q3D for 10 days (FIG. 5)) was “no adverse changes”. The survival ([5]; dogs, 2 mg/kg s.c. Q3D, scheduled dosing period) was “all animals survived”, the p21 protein level [7, 14] was “increased p21” and the p21 protein level [7, 15] was “no meaningful changes”.
